Measured values as given in patent US20250319115A1, “Compositions and Methods for Modulating Cytokines” (Flagship Pioneering Innovations VII, LLC, priority 2022, published 2025).

B1: SEQ ID NO: 6517: target protein of the Sequence Listing, secreted peptide (peptide, listed as Homo sapiens)
chain: VALSLLTSQGRQRRAGPSTAFAALPATVATFSAMTESESLRTSRHADTALARVRRGAKFRGQARTRYCARARSHRFTPPSGA
B2: SEQ ID NO: 5537: target protein of the Sequence Listing, secreted peptide (peptide, listed as Homo sapiens)
chain: MQRLPAAFFRSFAAQGLGESVHINTPTSLSLRGRPFISSSGPGARARVTCAPCLHAARILCCFWRGLHR
B3: SEQ ID NO: 5631: target protein of the Sequence Listing, secreted peptide (peptide, listed as Homo sapiens)
chain: MMAQKSKFRVLFMSDPHGTAMPLTSAILESSRASLAAKQEDKCFTDIRNLKWKHFLEHTKQPP
B4: SEQ ID NO: 5931: target protein of the Sequence Listing, secreted peptide (peptide, listed as Homo sapiens)
chain: MSCGSRRGPSLASSLAWLQLQSGTRPFCSSSPPYFLSHGRRIPFSHPRKESALRATKEPRTHRTNTSLADLPSPAPAHL
B5: SEQ ID NO: 3494: target protein of the Sequence Listing, secreted peptide (peptide, listed as Homo sapiens)
chain: MSYLPTNPPGSILTCWLGVSLGSHRSARGGSTIYGRLLPRRKDVWFSQAKDVPKYRGLLYLQS
B6: SEQ ID NO: 3169: target protein of the Sequence Listing, secreted peptide (peptide, listed as Homo sapiens)
chain: MCHKGWHGPGVPHHVAFTPCKARLRPATQCQAHSSPRRKMVQAGSIPLAAASGRLCLTHAGWWRGAS
B7: SEQ ID NO: 4566: target protein of the Sequence Listing, secreted peptide (peptide, listed as Homo sapiens)
chain: LRPRSAAFAPRYTRLVMRRSSRSFRLQCTGFPSSSAQSISAHLSNSMPSSLLTISRCPGMFAVRCPL

What was measured:
[1] = tested on: CD3/CD28 (TransAct) activated PBMCs; assay: PBMC cytokine release by Cytometric BeadArray, Inhibition format (peptide with anti-CD3/CD28 T-cell activator); format: cell-based, human; set-up: key to Inhibition by Analyte: IL-1b / Inhibition by Analyte: IL-2 / Inhibition by Analyte: TNF / Inhibition by Analyte: IP-10 / Inhibition by Analyte: IL-10: X = a hit with significant activation or inhibition of relevant cytokine release
Method: (§1) Peripheral Blood Mononuclear Cells were seeded+/−the T-cell activator […] and +/−peptides for 24-48 hours. Cytokines were measured from the supernatant after incubation by CBA Cytometer.
(§2) Thawing PBMCs: PBMCs were thawed by pre-warming TexMACS media (Miltenyi Biotech) in 20 ml aliquots-1-50 ml conical per donor. After the media was warmed to 37° C., cells were removed from liquid nitrogen and brought to the tissue culture hood. For each donor, 1 ml of media from the warmed aliquot was added to the frozen vial and mixed up and down. The media plus thawed cells were then added back to the 50 ml conical. This was repeated until all the cells were thawed and added to the 50 ml tube. Continue with other donors if used. Spin cells for 5 min at 400×g. Supernatant was aspirated and cells resuspended at ˜10*10^6 cells/ml (see vial for cell number).
(§3) PBMC Plating: Frozen PBMCs from normal, healthy, human volunteers (StemCell Technologies) were thawed and plated at 250,000 cells/well. After PBMCs were thawed and resuspended at […], cells were then counted (Countess III, Thermo Scientific) and adjusted based on counts to […]. Take the number of PBMCs determined by number of wells for the experiment, for example, 10 wells would need 2.5*10^6 cells total or 0.250 ml. The cells needed for the experiment are then transferred to another conical tube. Warmed TexMACS media is added so that the final concentration is 250,000 cells/190 ul media, for example, 10 wells would need 1.9 ml (190 ul×10 wells) of media total minus 0.250 ml of cells (1.9 ml-0.250 ml) or 1.65 ml of media added to the 0.250 ml of cells. Add 190 ul of cells plus media to the 96 well U-bottom plate. Place in incubator until dilutions are made and ready.
(§4) Peptide Dilutions: Ideally, all peptides should be at a starting concentration of at least 10 mM, especially for those in DMSO (ATCC) to reach a final concentration of 1 uM (H2O) or 0.5 uM (DMSO). Dilutions of all test articles should be made at 20× the final concentration, for example, a final concentration of 1 uM peptide would need to be made at 20 uM.
(§5) Reagent Dilution: Dilutions are made in TexMACS media, enough for 10 ul/well in triplicate (30 ul of a 20×). Activator—CD3/CD28 (TransAct; Miltenyi Biotech) or cytokine will be at 21× and added after the 45-minute incubation with peptides. Be sure to include relevant controls—Positive: TransAct+Cells, Negative: Vehicle+Cells. Dilutions should also be made in a ultra-low binding plate (Corning).
(§6) Assay Procedure: Peptide Treatment: Start assay by thawing the cells and plating in a 96 well, U-bottom tissue culture plate (Corning) as described above. Cell plates are placed in a tissue culture incubator (5% CO2, 37° C.). While cells are in the incubator, start making dilutions (optimally 1 hr or less) as described above. Cell plates are removed from the incubator and 10 ul of the 20× dilutions are added to the relevant wells. After the addition of inhibitors, cell plates are placed in the tissue culture incubator for 45 minutes. The plates are removed from the incubator and 10 ul of 21× TransAct is added to the relevant wells*. Plates are then returned to the incubator and incubated for 24 hours. After 24 hours, plates are spun for 5 minutes at 400×g.
(§7) * Activation: This assay can be run in two different formats—Activation and Inhibition. The procedure is the same except no TransAct is needed in the peptide wells for Activation. TransAct is only needed in the control wells. The purpose of this procedure is to determine the possible response from peptides alone.
(§8) Cytometric BeadArray (CBA): After the spin, supernatants (˜150 ul) are transferred to a new, ultra-low binding U-bottom plate. Supernatants are then frozen at −20° C. until thawed for CBA (BD) to determine levels of human IL-2, TNFα, IL-1b, IP-10, IL-10, and IFNg. CBA was run according to the manufacturers protocol.

[2] = tested on: Peripheral Blood Mononuclear Cells; assay: PBMC cytokine release by Cytometric BeadArray, Activation format (peptide applied to PBMCs alone); format: cell-based, human; set-up: key: X = a hit with significant activation or inhibition of relevant cytokine release; conditions: 24 hours, supernatant CBA
Method: as §1, §2, §3, §4, §5, §6, §7, §8

[3] = peptide applied with anti-CD3/CD28 T-cell activator, 24 hours, supernatant CBA

Molecule	Inhibition by Analyte: IL-1b [1, 3]	Inhibition by Analyte: TNF [1, 3]	Activation by Analyte: IP-10 [2]	other results
SEQ ID NO: 1184: target protein of the Sequence Listing, synthesized peptide (LEMEGGCSPPIPHAGHRWKCQTVRVHA; listed as Homo sapiens)	X	X	–	Inhibition by Analyte: IL-2 [1, 3]: X; Inhibition by Analyte: IP-10 [1, 3]: X
SEQ ID NO: 3462: target protein of the Sequence Listing, secreted peptide (METSCSLWVSSELFCRSVKVFFCLLALHLSALPHSSWTQDKNLGLAGMVELK; listed as Homo sapiens)	–	–	X	–
SEQ ID NO: 3585: target protein, anti-inflammatory cytokine modulator, secreted peptide (VAEPRRGHLKAALASLGGAAPAAATNGSPPLFK; listed as Homo sapiens)	X	X	–	release of TNF-alpha from activated PBMCs ([1]; CD3/CD28 (TransAct) activated PBMCs, FIG. 7): significantly blocks; release of IL-1b from activated PBMCs ([1]; CD3/CD28 (TransAct) activated PBMCs, FIG. 8): does not block; Inhibition by Analyte: IL-2 [1, 3]: X
SEQ ID NO: 4174: target protein of the Sequence Listing, secreted peptide (MRSPLSASALLLWSSSVARAFSSPSLLMAVPSPTCSRY; listed as Homo sapiens)	X	X	–	Inhibition by Analyte: IL-10 [1, 3]: X; Inhibition by Analyte: IP-10 [1, 3]: X
SEQ ID NO: 4615: target protein of the Sequence Listing, secreted peptide (MTAFGLGIPTFLVMQPSGSQPRFPALTQNGVALVRTPLTSVYLRVRICRVLGPRSQPS; listed as Homo sapiens)	X	X	X	Activation by Analyte: IL-10 [2]: X
SEQ ID NO: 5627: target protein of the Sequence Listing, secreted peptide (MSEVATLLFSQTALASLESVHPAGHKLWMRNLRQVTSP; listed as Homo sapiens)	–	X	–	Inhibition by Analyte: IL-2 [1, 3]: X
SEQ ID NO: 5730: target protein of the Sequence Listing, secreted peptide (MVSHRKDWRRVNLRFSSCLLLSICLDDKPSADELCFWTDHGRSQLTCPSLGVSQGHARSS; listed as Homo sapiens)	–	–	X	–
SEQ ID NO: 5843: target protein of the Sequence Listing, secreted peptide (MGGKSWLFFYSLVFCALLPLPRREDPFKLF; listed as Homo sapiens)	X	–	–	–
SEQ ID NO: 5848: target protein of the Sequence Listing, secreted peptide (MARPLSLAAAGAPDLLFTALCSLLIEAQPLRPFDLQVLGDPQPRARTP; listed as Homo sapiens)	–	–	–	Activation by Analyte: IL-2 [2]: X
SEQ ID NO: 5862: target protein of the Sequence Listing, secreted peptide (MESRTLLLLFSGAVALIQTWADYNYNQGRNDLIFTLQLWKRQ; listed as Homo sapiens)	X	–	–	–
SEQ ID NO: 6295: target protein of the Sequence Listing, secreted peptide (MWWKTPCWWTPSTTATSSSAEARSCGRLLKSMAG; listed as Homo sapiens)	–	–	X	–
SEQ ID NO: 6518: target protein of the Sequence Listing, secreted peptide (MSFDHPEKNGPWPADPINLPSHG; listed as Homo sapiens)	–	X	–	Inhibition by Analyte: IL-2 [1, 3]: X
B1	–	–	X	–
B2	–	–	X	–
B3	–	–	X	–
B4	–	–	–	Activation by Analyte: IL-1b [2]: X
B5	–	–	X	–
B6	–	–	X	–
B7	–	–	X	–
